One test has as its target T1, Bcl-2-like protein 10 (Homo sapiens, UniProt Q9HD36).
T1 sequence (Q9HD36 whole entry): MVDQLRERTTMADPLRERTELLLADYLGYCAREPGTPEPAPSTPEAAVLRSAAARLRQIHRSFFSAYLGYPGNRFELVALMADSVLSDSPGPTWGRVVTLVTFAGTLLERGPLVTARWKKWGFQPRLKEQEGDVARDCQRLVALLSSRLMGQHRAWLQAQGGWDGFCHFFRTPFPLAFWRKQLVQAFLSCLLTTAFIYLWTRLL
Nature of the test: Concentration-response of Bcl-B inhibitors by biochemical FP with TR3 (AID 1243). The test is classed as functional.

Test [1] addresses T2, NADPH oxidase 1 (Homo sapiens, UniProt Q9Y5S8).
T2 sequence (Q9Y5S8 whole entry): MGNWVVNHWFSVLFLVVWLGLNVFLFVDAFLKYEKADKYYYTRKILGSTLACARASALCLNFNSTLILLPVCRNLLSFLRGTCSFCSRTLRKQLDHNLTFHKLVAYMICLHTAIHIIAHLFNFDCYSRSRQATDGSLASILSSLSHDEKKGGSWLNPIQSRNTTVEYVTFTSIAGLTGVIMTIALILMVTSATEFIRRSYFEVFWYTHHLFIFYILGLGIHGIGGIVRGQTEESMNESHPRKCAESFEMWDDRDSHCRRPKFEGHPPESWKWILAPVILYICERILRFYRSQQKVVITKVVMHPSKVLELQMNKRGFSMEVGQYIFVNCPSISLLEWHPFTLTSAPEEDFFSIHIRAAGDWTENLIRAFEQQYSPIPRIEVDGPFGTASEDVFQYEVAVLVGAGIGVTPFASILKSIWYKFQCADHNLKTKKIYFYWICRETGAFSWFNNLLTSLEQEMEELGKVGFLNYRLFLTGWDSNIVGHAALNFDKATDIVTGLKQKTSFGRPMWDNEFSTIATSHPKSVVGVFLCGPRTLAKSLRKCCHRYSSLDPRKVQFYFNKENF
The experiment in a line: Luminescence-based cell-based dose response assay to identify inhibitors of NADPH oxidase 1 (NOX1). It is filed as functional.

The target in test [2] is T2, NADPH oxidase 1. The experiment in a line: Late-stage luminescence-based cell-based dose response assay to identify inhibitors of NADPH oxidase 1 (NOX1): Synthesized analogs. It is filed as functional.
For test [3], the target named is T3, Bcl-2-related protein A1 (Mus musculus, UniProt Q07440).
T3 sequence (Q07440 whole entry): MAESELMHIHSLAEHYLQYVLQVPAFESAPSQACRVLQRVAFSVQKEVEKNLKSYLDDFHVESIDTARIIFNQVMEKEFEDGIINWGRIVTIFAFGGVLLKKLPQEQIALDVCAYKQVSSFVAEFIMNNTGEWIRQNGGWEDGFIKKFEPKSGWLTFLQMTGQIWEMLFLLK
The experiment in a line: small-molecule antagonists of Bfl-1/BH3 interaction – biochemical, TR-FRET, mouse Bfl-1, confirmation (AID 621).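 Further: TR-FRET binding of GST-Bfl-1 to FITC-labelled Bid peptide via terbium antibody.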 Background: In TR-FRET formats the signal depends on donor and acceptor labels being close together.

Test [4] deals with T3, Bcl-2-related protein A1. Nature of the test: Bfl-1 binding inhibitors, SAR follow-up, biochemical, fluorescence polarization (AID 1070). (In general: Fluorescence polarisation rises when a labelled molecule tumbles more slowly, as on binding a larger partner.)
The next test deals with Procathepsin L (Homo sapiens, UniProt P07711). Nature of the test: CTSL1 protease inhibition – biochemical, QFRET, 1536-well, counter-screen for M1/M17 aminopeptidase inhibitor project, dose response (AID 2214).
In a further test the target is T4, Leucine aminopeptidase (Plasmodium falciparum 3D7, UniProt Q8IL11).
T4 sequence (Q8IL11 whole entry): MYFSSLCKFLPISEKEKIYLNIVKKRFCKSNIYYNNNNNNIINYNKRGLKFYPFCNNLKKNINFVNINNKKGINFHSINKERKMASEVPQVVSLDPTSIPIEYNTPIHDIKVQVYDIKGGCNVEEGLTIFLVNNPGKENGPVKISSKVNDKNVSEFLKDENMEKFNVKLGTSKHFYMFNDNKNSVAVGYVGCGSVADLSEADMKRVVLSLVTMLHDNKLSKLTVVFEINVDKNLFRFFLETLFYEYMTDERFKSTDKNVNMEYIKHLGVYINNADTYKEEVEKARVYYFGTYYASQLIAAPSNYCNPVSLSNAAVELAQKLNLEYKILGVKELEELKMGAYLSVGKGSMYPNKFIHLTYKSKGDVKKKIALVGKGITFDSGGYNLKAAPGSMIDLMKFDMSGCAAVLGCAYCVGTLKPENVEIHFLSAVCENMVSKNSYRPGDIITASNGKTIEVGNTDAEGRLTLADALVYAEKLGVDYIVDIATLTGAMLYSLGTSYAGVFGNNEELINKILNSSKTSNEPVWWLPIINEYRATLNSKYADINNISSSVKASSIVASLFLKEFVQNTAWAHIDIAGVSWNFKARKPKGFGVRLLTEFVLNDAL
The experiment in a line: P. falciparum M17LAP inhibitors, primary screen, biochemical, fluorogenic H-Leu-NHMec substrate, 1536-well (AID 1619). It is filed as functional.

The next test addresses Aspartyl aminopeptidase (Plasmodium falciparum 3D7, UniProt Q8I2J3). Nature of the test: Counterscreen for inhibitors of M1 and M17 aminopeptidases: QFRET-based biochemical high throughput dose response assay for inhibitors of the Plasmodium falciparum M18 Aspartyl Aminopeptidase (PFM18AAP). [Related PubChem assays: 1619 (Screening assay (M17LAP inhibitors).), 1445 (Screening assay (M1AAP inhibitors).)].

Test [5] in a line: mitochondrial function rescue without frataxin homolog – Friedreich's ataxia, plus single-dose screen, dose response (AID 1465).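 Further: yeast depleted of Yfh1p frataxin homolog grown on glycerol needing respiration; WST-1 tetrazolium dye reduction as measure of cellular dehydrogenase metabolic activity.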 The test is classed as functional.
Test [6] in a line: NIH-3T3 fibroblast cytotoxicity, dose response, cytotoxicity control, cell-based, fluorescence, Alamar Blue, secondary assay (AID 2327).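 Further: NIH-3T3 mouse fibroblasts cultured with fluconazole at 8 µg/mL.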 It is filed as functional. For orientation: Resazurin is reduced to fluorescent resorufin, in cell work by metabolically active cells.
Test [7] is described as follows: fluconazole-exposed Candida albicans growth modulators – fluorescence, retest, confirmation (AID 2467). The test is classed as functional, cell-based.
The subject of another test is Vero. Nature of the test: mammalian cell viability reduction – secondary assay, cytotoxicity control for West Nile virus antiviral project, dose response (AID 1650). It is filed as functional. The note with it: Chlorocebus sabaeus.
Test [8] in a line: Luminescence Cell-Based Dose Response to Identify Activators of 5'UTR Stem-Loop Driven Prion Protein mRNA Translation in H4-C Neuroglioblastoma Cells. [Related pubchem assays: 1829 (Project Summary), 1814 (Primary HTS)]. It is filed as functional.
The test system of the next test is H4. The experiment in a line: Luminescence Cell-Based Dose Response HTS to Identify Activators of 5'UTR Stem-Loop Driven Prion Protein mRNA Translation in H4 Neuroglioblastoma Cells. [Related pubchem assays: 1829 (Project Summary), 1814 (Primary HTS)]. The test is classed as functional. Conditions: Homo sapiens.
The nature of test [9]: Luminescence Cell-Based Dose Response HTS to Identify Activators of Luciferase Translation or Activity in H4 […] Cells. [Related pubchem assays: 1829 (Project Summary), 1814 (Primary HTS)]. It is filed as functional.
A short description of test [10]: Luminescence Cell-Based Dose Response to Identify Activators of Luciferase Translation or Activity in H4-C Neuroglioblastoma Cells. [Related pubchem assays: 1829 (Project Summary), 1814 (Primary HTS)]. The test is classed as functional.
Test [11] in a line: Luminescence Cell-Based Dose Confirmation to Identify Activators of 5'UTR Stem-Loop Driven Alpha-Synuclein mRNA Translation in H4 Neuroglioblastoma Cells. [Related pubchem assays: 1829 (Project Summary), 1814 (Primary HTS)]. The test is classed as functional.

Molecules are shown by their SMILES. Activity calls are given as the source filed them.

Aspartyl aminopeptidase, sequence (Q8I2J3 whole entry): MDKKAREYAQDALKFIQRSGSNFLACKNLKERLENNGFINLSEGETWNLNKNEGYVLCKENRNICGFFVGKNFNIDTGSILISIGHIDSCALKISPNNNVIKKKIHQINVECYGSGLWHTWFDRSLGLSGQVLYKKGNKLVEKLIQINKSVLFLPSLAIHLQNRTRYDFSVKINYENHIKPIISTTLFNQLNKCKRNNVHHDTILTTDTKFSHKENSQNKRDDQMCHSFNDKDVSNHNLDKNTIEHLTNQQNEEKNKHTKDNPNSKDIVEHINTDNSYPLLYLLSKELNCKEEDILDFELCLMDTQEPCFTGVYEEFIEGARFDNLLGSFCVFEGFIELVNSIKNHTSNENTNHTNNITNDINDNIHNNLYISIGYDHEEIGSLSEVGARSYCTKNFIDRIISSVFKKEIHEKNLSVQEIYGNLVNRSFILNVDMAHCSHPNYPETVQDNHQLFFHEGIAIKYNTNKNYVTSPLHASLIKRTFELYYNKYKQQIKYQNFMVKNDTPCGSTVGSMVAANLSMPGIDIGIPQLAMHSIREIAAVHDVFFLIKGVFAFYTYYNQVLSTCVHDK
Procathepsin L, sequence (P07711 whole entry): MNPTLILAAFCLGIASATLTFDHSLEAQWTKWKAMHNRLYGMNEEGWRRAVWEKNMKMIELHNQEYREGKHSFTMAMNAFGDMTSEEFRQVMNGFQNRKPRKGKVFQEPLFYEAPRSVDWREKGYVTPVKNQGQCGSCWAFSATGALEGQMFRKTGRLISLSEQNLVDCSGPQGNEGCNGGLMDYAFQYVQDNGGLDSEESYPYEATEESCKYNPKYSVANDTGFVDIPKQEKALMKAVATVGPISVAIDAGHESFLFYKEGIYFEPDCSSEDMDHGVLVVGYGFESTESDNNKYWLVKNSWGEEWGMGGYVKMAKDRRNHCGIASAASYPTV

Turning to `Cc1cc(C)nc(/N=C(\N)Nc2ccc(N)cc2)n1`, the half-maximal effective concentration (EC50) on Bcl-2-like protein 10 was 5.38 µM (active).
On to `COc1ccc2c(c1)S(=O)(=O)c1ccccc1N2`, for which the IC50 is > 20 µM (not active) against NADPH oxidase 1 [1] and > 50 µM (not active) on NADPH oxidase 1 [2].
`C[C@H]1CN(C2=C(Cl)C(=O)N(c3ccc(Cl)c(Cl)c3)C2=O)CCN1`: the results for the IC50 at Bcl-2-related protein A1 [3] and on Bcl-2-related protein A1 [4] were 1.25 µM (active) and 1.32 µM (active), respectively.
Consider `O=C(O)C1CC=CCC1C(=O)Nc1cccc(Cl)c1` (configuration not stated), for which the IC50 was > 59.6 µM (not active) at Procathepsin L, 6.23 µM (active) at Leucine aminopeptidase and > 73.5 µM (not active) on Aspartyl aminopeptidase.
As to `CCN(CC)c1ccc2cc(C(N)=O)c(=N)oc2c1`, the EC50 in [5] is > 100 µM (active).
Consider `Nc1nsc2ccccc12`, for which the results for the 50% effective concentration (EC50) in [6] and in test [7] were 24.5 µM (inconclusive) and 3.19 µM (active), respectively. The CC50 with Vero is 41.7 µM (active).
In the case of `S=C(c1ccc(-c2ccc(Br)cc2)o1)N1CCOCC1`, the EC50 in test [8] is 0.507 µM (active); in the test with H4, 18.6 µM (inconclusive); in [9] it was < 0.1 µM (active); in test [10], 0.378 µM (active); in test [11], 0.251 µM (active).

The term EC50 denotes the concentration at which the effect is half-maximal. For orientation: IC50 means the concentration needed to halve the response being measured. A word on the CC50: it is the concentration giving 50% cytotoxicity.

Source of the values: ChEMBL document CHEMBL1201862, “PubChem BioAssay data set” (2004).
